What was measured:
Format in all cases: physicochemical
[1] = Bulk density (USP 616, Method 1; bulk density cylinder)
From the text: Bulk density can be determined according to USP 616, Method 1.
Bulk density can be determined using a bulk density cylinder.

[2] = Tapped bulk density (USP 616); details: active pharmaceutical ingredient used in Example 13
From the text: Tapped bulk density can be determined according to USP 616.

Hausner Ratio (USP 1174) = details: active pharmaceutical ingredient used in Example 13
From the text: The Hausner Ratio can be determined according to USP 1174.

[3] = Particle size distribution by laser diffraction
From the text: The parameter D90 refers to the point in the size distribution of a sample, up to and including which, 90% of the total volume of material in the sample is contained. For example for a D90 of 400 μm, 90% of the sample volume has a size of 400 μm or less. D50 is the size below which 50% of the total volume of material in the sample is contained. Similarly, D10 refers to the size below which 10% of the total volume of material in the sample is contained. The volume distribution of the sample can be determined by laser diffraction or by sieve analysis.
A particle size distribution can be determined by laser diffraction or by sieve analysis.
FIGS. 15 and 16 show a particle size distribution of as-crystallized active pharmaceutical ingredient and jet-milled active pharmaceutical ingredient, respectively, as determined by laser diffraction. The PSD of the as-crystallized active pharmaceutical ingredient was characterized by a D10 of 11.8 μm, a D50 of 34.0 μm, and a D90 of 72.3 μm. The PSD of the jet-milled active pharmaceutical ingredient was characterized by a D10 of 7.8 μm, a D50 of 16.1 μm, and a D90 of 21.5 μm.

[4] = Specific surface area by laser diffraction
Method: Specific surface area can be determined by laser diffraction.
The specific surface area distributions of as-crystallized active pharmaceutical ingredient and jet-milled active pharmaceutical ingredient was determined by laser diffraction. […] In other samples, the jet milled active pharmaceutical ingredient was characterized by a specific surface area of 1174 m^2/kg.

[5] = active pharmaceutical ingredient used in Example 13
[6] = FIGS. 15 and 16, laser diffraction, listed as jet-milled active pharmaceutical ingredient
[7] = FIGS. 15 and 16, laser diffraction, listed as as-crystallized active pharmaceutical ingredient

Row | Structure (SMILES) | API Bulk Density ([1]; Jet Milled API used for granulation (13)) | API Bulk Density [1, 5] | API Tapped Bulk Density [2] | Hausner Ratio (Hausner Ratio (USP 1174)) | PSD D10 [3, 6] | PSD D50 [3, 6] | PSD D90 [3, 6] | PSD D10 [3, 5] | PSD D50 [3, 5] | PSD D90 [3, 5] | specific surface area [4, 5] | specific surface area ([4]; in other samples) | specific surface area ([4]; laser diffraction, listed as jet-milled active pharmaceutical ingredient) | PSD D10 [3, 7] | PSD D50 [3, 7] | PSD D90 [3, 7] | specific surface area ([4]; laser diffraction, listed as as-crystallized active pharmaceutical ingredient) | bulk density ([1]; active pharmaceutical ingredient of Example 9, before Comil) | bulk density ([1]; active pharmaceutical ingredient used in Examples 1-6)
1 | CC(C)[C@H](N)C(=O)OCCCC(=O)O [Jet-Milled, 4-((L-valyl)oxy)butanoic acid] | 0.12 g/mL | 0.12 g/mL | 0.20 g/mL | 1.700 | 7.8 μm | 16.1 μm | 21.5 μm | 8 μm | 16 μm | 28 μm | 478 m^2/kg | 1174 m^2/kg | 478 m^2/kg |  |  |  |  |  | 
2 | CC(C)[C@H](N)C(=O)OCCCC(=O)O [As-Crystallized, 4-((L-valyl)oxy)butanoic acid] |  | 0.20 g/mL | 0.38 g/mL | 1.85 |  |  |  | 12 μm | 34 μm | 71 μm | 291 m^2/kg |  |  | 11.8 μm | 34.0 μm | 72.3 μm | 291 m^2/kg |  | 
3 | CC(C)[C@H](N)C(=O)OCCCC(=O)O [active pharmaceutical ingredient, 4-((L-valyl)oxy)butanoic acid] |  |  |  |  |  |  |  |  |  |  |  |  |  |  |  |  |  | 0.263 g/mL | 0.15 g/mL
